The source of these data is patent US7268159B2, “Substituted indoles” (Wyeth, priority 2003, dated 2007).

pIC50: −log10 of the molar value.

Assay [1] deals with T1, recombinant human plasminogen activator inhibitor-1 (PAI-1) (Homo sapiens, UniProt P05121).
T1 construct: purchased Molecular Innovations, Royal Oak, Mich
In words: Primary screen for the PAI-1 inhibition (residual tPA activity, Spectrozyme-tPA chromogenic substrate). Particulars: 140 nM PAI-1, 70 nM tPA, pH 6.6; for inhibition at 10 µM: 10 μM test compound; for inhibition at 25 µM: 25 μM test compound. Format: biochemical. The protocol: Test compounds are dissolved in DMSO at a final concentration of 10 mM, then diluted 100× in physiologic buffer. The inhibitory assay is initiated by the addition of the test compound (1-100 μM final concentration, maximun DMSO concentration of 0.2%) in a pH 6.6 buffer containing 140 nM recombinant human plasminogen activator inhibitor-1 (PAI-1; Molecular Innovations, Royal Oak, Mich.). Following a 1 hour incubation at room temperature, 70 nM of recombinant human tissue plasminogen activator (tPA) is added, and the combination of the test compound, PAI-1 and tPA is incubated for an additional 30 minutes. Following the second incubation, Spectrozyme-tPA (American Diagnostica, Greenwich, Conn.), a chromogenic substrate for tPA, is added and absorbance read at 405 nm at 0 and 60 minutes. Relative PAI-1 inhibition is equal to the residual tPA activity in the presence of the test compound and PAI-1. Control treatments include the complete inhibition of tPA by PAI-1 at the molar ratio employed (2:1), and the absence of any effect of the test compound on tPA alone.

In assay [2] the target is human PAI-1 (Homo sapiens, UniProt P05121). Briefly: Assay for determining IC50 of inhibition of PAI-1 (active PAI-1 bound to tPA-coated plate, antibody detection). Particulars: human PAI-1 50 ng/ml, pH 7.5. Format: binding. The protocol: This assay is based upon the non-SDS dissociable interaction between tPA and active PAI-1. Assay plates are initially coated with human tPA (10 μg/ml). Test compounds of the present invention are dissolved in DMSO at 10 mM, then diluted with physiologic buffer (pH 7.5) to a final concentration of 1-50 μM. Test compounds are incubated with human PAI-1 (50 ng/ml) for 15 minutes at room temperature. The tPA-coated plate is washed with a solution of 0.05% Tween 20 and 0.1% BSA, then the plate is blocked with a solution of 3% BSA. An aliquot of the substituted indole/PAI-1 solution is then added to the tPA-coated plate, incubated at room temperature for 1 hour, and washed. Active PAI-1 bound to the plate is assessed by adding an aliquot of a 1:1000 dilution of the 33B8 monoclonal antibody against human PAI-1, and incubating the plate at room temperature for 1 hour (Molecular Innovations, Royal Oak, Mich.) The plate is again washed, and a solution of goat anti-mouse IgG-alkaline phosphatase conjugate is added at a 1:50,000 dilution in goat serum. […] The plate is incubated 45 minutes at room temperature, and color development is determined at OD405 nm. The quantitation of active PAI-1 bound to tPA at varying concentrations of the test compound is used to determine the IC50. Results are analyzed using a logarithmic best-fit equation. […]
Sequence of human PAI-1 (P05121 24-402): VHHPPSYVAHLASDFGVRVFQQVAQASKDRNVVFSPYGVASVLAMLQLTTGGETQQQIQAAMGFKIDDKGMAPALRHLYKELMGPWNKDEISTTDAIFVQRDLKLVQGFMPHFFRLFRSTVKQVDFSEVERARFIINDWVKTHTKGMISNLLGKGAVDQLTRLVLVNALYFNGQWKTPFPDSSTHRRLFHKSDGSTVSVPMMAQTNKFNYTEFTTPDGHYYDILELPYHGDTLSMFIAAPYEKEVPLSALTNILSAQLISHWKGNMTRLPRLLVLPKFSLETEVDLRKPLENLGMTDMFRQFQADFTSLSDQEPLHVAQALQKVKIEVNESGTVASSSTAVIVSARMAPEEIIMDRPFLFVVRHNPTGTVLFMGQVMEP

T1 sequence (P05121 24-402): as above

`O=C(O)c1cc2ccccc2n1-c1ccc(NS(=O)(=O)c2ccc(OC(F)(F)F)cc2)cc1` [Compound 1, 1-[4-({[4-(trifluoromethoxy)phenyl]sulfonyl}amino)phenyl]-1H-indole-2-carboxylic acid]: in assay [1], the inhibition (in general, the relative decrease from the control value, in per cent) at 10 µM amounted to 39% and the inhibition at 25 µM was 40%.

In the case of `O=C(O)c1cc2ccccc2n1-c1ccc(-n2cccc2)cc1` [Compound 2, 1-[4-(1H-pyrrol-1-yl)phenyl]-1H-indole-2-carboxylic acid], in assay [1], the inhibition at 10 µM was found to be 15% and the inhibition at 25 µM is 35%.

Take `O=C(O)c1cc2ccccc2n1Cc1ccc(NS(=O)(=O)c2ccc(-c3ccccc3)cc2)cc1` [Compound 3, 1-{4-[(1,1′-biphenyl-4-ylsulfonyl)amino]benzyl}-1H-indole-2-carboxylic acid]: in assay [1], the inhibition at 25 µM is 66%.

Consider `CC(C)(C)c1ccc(S(=O)(=O)Nc2ccc(Cn3ccc4cc(C(=O)O)ccc43)cc2)cc1` [Compound 4, 1-(4-{[(4-tert-butylphenyl)sulfonyl]amino}benzyl)-1H-indole-5-carboxylic acid], for which the inhibition at 25 µM in assay [1] came to 27%.

As for `O=C(O)c1ccc2c(ccn2Cc2ccc(NS(=O)(=O)c3ccc(-c4ccccc4)cc3)cc2)c1` [Compound 5, 1-{4-[(1,1′-biphenyl-4-ylsulfonyl)amino]benzyl}-1H-indole-5-carboxylic acid], in assay [1], the inhibition at 25 µM was found to be 22%.

For the compound `CC(C)(C)c1ccc(S(=O)(=O)Nc2ccc(Cn3cc(C(=O)O)c4ccccc43)cc2)cc1` [Compound 6, 1-(4-{[(4-tert-butylphenyl)sulfonyl]amino}benzyl)-1H-indole-3-carboxylic acid], in assay [1], the inhibition at 10 µM worked out at 19% and the inhibition at 25 µM was 28%.

For the compound `O=C(O)c1cn(Cc2ccc(NS(=O)(=O)c3ccc(-c4ccccc4)cc3)cc2)c2ccccc12` [Compound 7, 1-{4-[(1,1′-biphenyl-4-ylsulfonyl)amino]benzyl}-1H-indole-3-carboxylic acid], in assay [1], the inhibition at 10 µM amounted to 25% and the inhibition at 25 µM came to 27%.

`CC(C)(C)c1ccc(S(=O)(=O)Nc2ccc(Cn3ccc4c(C(=O)O)cccc43)cc2)cc1` [Compound 8, 1-(4-{[(4-tert-butylphenyl)sulfonyl]amino}benzyl)-1H-indole-4-carboxylic acid]: in assay [1], the inhibition at 10 µM was 27% and the inhibition at 25 µM stood at 47%.

`O=C(O)c1cccc2c1ccn2Cc1ccc(NS(=O)(=O)c2ccc(-c3ccccc3)cc2)cc1` [Compound 9, 1-{4-[(1,1′-biphenyl-4-ylsulfonyl)amino]benzyl}-1H-indole-4-carboxylic acid]: in assay [1], the inhibition at 10 µM was found to be 26% and the inhibition at 25 µM was determined as 35%.

Take `O=C(O)c1ccc2ccn(Cc3ccc(NS(=O)(=O)c4ccc(-c5ccccc5)cc4)cc3)c2c1` [Compound 10, 1-{4-[(1,1′-biphenyl-4-ylsulfonyl)amino]benzyl}-1H-indole-6-carboxylic acid]: in assay [1], the inhibition at 10 µM came to 26% and the inhibition at 25 µM came to 30%.

For `O=C(O)c1c(-c2ccccc2)c2ccccc2n1Cc1ccc(NS(=O)(=O)c2ccccc2)cc1` [Compound 11, 3-phenyl-1-{4-[(phenylsulfonyl)amino]benzyl}-1H-indole-2-carboxylic acid], in assay [1], the inhibition at 10 µM is 51% and the inhibition at 25 µM turned out to be 71%.

As to `CS(=O)(=O)Nc1ccc(Cn2c(C(=O)O)c(-c3ccccc3)c3ccccc32)cc1` [Compound 12, 1-{4-[(methylsulfonyl)amino]benzyl}-3-phenyl-1H-indole-2-carboxylic acid], in assay [1], the inhibition at 10 µM amounted to 42% and the inhibition at 25 µM was found to be 49%.

Regarding `O=C(O)c1c(-c2cccs2)c2ccccc2n1Cc1ccc(NS(=O)(=O)c2ccccc2)cc1` [Compound 13, 1-{4-[(phenylsulfonyl)amino]benzyl}-3-thien-2-yl-1H-indole-2-carboxylic acid], in assay [1], the inhibition at 10 µM was determined as 50% and the inhibition at 25 µM is 79%.

As to `CS(=O)(=O)Nc1ccc(Cn2c(C(=O)O)c(-c3cccs3)c3ccccc32)cc1` [Compound 14, 1-{4-[(methylsulfonyl)amino]benzyl}-3-thien-2-yl-1H-indole-2-carboxylic acid], in assay [1], the inhibition at 10 µM was 45% and the inhibition at 25 µM is 53%.

In the case of `Cc1ccc(C)n1-c1ccc(Cn2c(C(=O)O)c(-c3ccccc3)c3ccccc32)cc1` [Compound 15, 1-[4-(2,5-dimethyl-1H-pyrrol-1-yl)benzyl]-3-phenyl-1H-indole-2-carboxylic acid], in assay [1], the inhibition at 10 µM amounted to 53% and the inhibition at 25 µM was 69%. For the same compound, the negative-log IC50 (pIC50) (as a rule, −log10 of the IC50, conventionally taken in molar units) in assay [2] is 5.60.

For `O=C(O)c1c(-c2ccccc2)c2ccccc2n1Cc1ccc(Nc2ccccc2)cc1` [Compound 16, 1-(4-anilinobenzyl)-3-phenyl-1H-indole-2-carboxylic acid], in assay [1], the inhibition at 10 µM was found to be 26% and the inhibition at 25 µM was found to be 32%.

For the compound `O=C(O)c1c(-c2cccs2)c2ccccc2n1Cc1ccc(Nc2ccccc2)cc1` [Compound 17, 1-(4-anilinobenzyl)-3-thien-2-yl-1H-indole-2-carboxylic acid], in assay [1], the inhibition at 10 µM worked out at 25% and the inhibition at 25 µM is 35%.
